Like-named read-outs stand apart in the source and are kept apart here.
Columns and labels:
[1] = system: Purified breast cancer cells from 67 patient (Pt) biopsies; assay: MiCK assay of drug-induced apoptosis, breast cancer specimens; format: cell-based, human; details: for KU Mean / KU Median: kinetic units of apoptosis; for KU Mean: mean over N patient samples (at least 9 per drug); for KU Median: median over N patient samples
Protocol: Apoptosis(KU)=(VmaxDrug Candidate Treated−VmaxControl)×60×X/(ODcontrol−ODblank)
Within 24 to 48 hours of collection, the specimen was minced, digested with 0.25% trypsin and 0.08% DNase for 1-2 hours at 37 C.°, and then filtered through a 100 micrometer cell strainer. When necessary, non-viable cells were removed by density gradient centrifugation. The cell suspension was then incubated for 30 min at 37° C. in a tissue culture flask to remove macrophages by adherence. For epithelial tumors lymphocytes were removed by 30 minute incubation with CD2 antibody conjugated magnetic beads for T lymphocytes and CD19 antibody conjugated magnetic beads for B lymphocytes. Remaining macrophages were removed, if necessary, using CD14 antibody conjugated magnetic beads. The final cell suspension was plated into a 96-well half-area plate, 120 microliter aliquot per well. The plate was incubated overnight at 37° C. with 5% carbon dioxide humidified atmosphere. 5×10^4 to 1.5×10^5 cells were seeded per well depending on the cell volume to give adequate well-bottom coverage.
Within 24 to 48 hours of collection, the specimen was treated as follows in order to purify and isolate cells from solid tumors: • Take the specimen out of the transport tube. • Put in a petri dish in 13 ml of PBS+high concentration of antibiotics (200 units/ml Penicillin+200 μg/ml streptomycin) and take measurements and picture of the specimen. […] In that case, one may make the determination to do a “pre-filtration” using sterile gauze over a 50 ml tube. Then proceed with the cell strainer filtration process referenced above. • Centrifuge the filtered cell suspension 1500 RPM 5 min • Discard the supernatant. To the pellet, add 5 ml of red blood cell lysis solution (standard NH4Cl containing lysis solution: Nh4Cl0.15M+KHCO3 10 mM+EDTA-4Na 0.1 mM, pH 7.2), incubate 2-3 min and add 5 ml of RPMI 10% FBS. • Centrifuge 5 min 1500 RPM. Resuspend the pellet in RPMI 10% FBS (1-10 ml depending on the pellet size). • Collect the second fraction in the enzyme and repeat the steps above. • Check the viability of all fractions and pool. Do a cytospin stain with Wright Giemsa to verify the cell content of the population. NOTE: this is done numerous times during the process of purification. • 3) When necessary, non-viable cells were removed by density gradient centrifugation. • Density gradient centrifugation (optiprep): first layer=2 ml cells+4.45 ml optiprep 40% in RPMI, second layer=optiprep 22.5% in RPMI, 3rd layer=0.5 ml of RPMI. Centrifuge at 2000 RPM for 20 min • Collect the viable cell layer, add 10 ml of RPMI 10% FBS, centrifuge at 1500 RPM for 5 min • Resuspend the pellet in RPMI 10% FBS (volume depends on the pellet size and on the next step required). • If mucin is present in the specimen: resuspend the pellet in 10 ml of PBS+20 mM DTT and incubate at 4° C. for 30 min to disintegrate the mucin. Wash with RPMI 1500 rpm for 5 min Resuspend the pellet in RPMI 10% FBS. • If the specimen is highly necrotic with presence of debris: Percoll 20% in HBSS, centrifuge at 800×g for 10 min • 4) The cell suspension was then incubated for 20 min at 37° C. in a tissue culture flask to remove macrophages by adherence. • The size and quantity of the flask and the volume used depends on the amount of cells.

[2] = system: neoplastic cells collected from spleen and abdominal tumor biopsy specimens; assay: MiCK assay, patient specific cancer cell testing (Example 10); format: cell-based, human
Protocol: The experiments were conducted on neoplastic cells collected from spleen and abdominal tumor biopsy specimens from a person. The tumor specimens were of an unknown primary. The experiment consisted of using a MiCK assay, according to the present disclosure, to test the effectiveness of 37 potential anti-cancer drugs, combinations of these drugs, and various concentrations of these drugs.
Apoptotic readings greater than 5.0KU in the MiCK assay are considered to be highly sensitive and are associated with a good clinical response. […] It should be noted that the alkylating agents cyclophosphamide and ifosfamide require hepatic metabolic transformation to their active metabolite, 4HC and 4HI respectively, and therefore cannot be tested directly in vitro. For the MiCK assay their active metabolites, 4HC and 4HI respectively were used.

[3] = person, tumor of unknown primary, maximum apoptotic response over the concentrations tested
[4] = KU compared per patient, % of 13 patients

| Compound | KU Mean [1] [KU] | KU Median [1] [KU] | Max Resp. (KU) [2, 3] [KU] | also measured |
| --- | --- | --- | --- | --- |
| O=P1(NCCCl)OCCCN1CCCl (stereo not drawn) [Ifosfamide, ifosfamide] | 1.7 | 1.5 | 2.6 | Ifosf > Cytox + 0.57 ([1]; KU compared per patient, % of 11 patients): (0%) |
| CCc1c2c(nc3ccc(OC(=O)N4CCC(N5CCCCC5)CC4)cc13)-c1cc3c(c(=O)n1C2)COC(=O)[C@]3(O)CC [Irinotecan] |  |  | 2.6 |  |
| C/C(=C\c1csc(C)n1)[C@@H]1C[C@@H]2O[C@]2(C)CCC[C@H](C)[C@H](O)[C@@H](C)C(=O)C(C)(C)[C@@H](O)CC(=O)N1 [Ixabepilone, ixabepilone] | 1.3 | 1.2 |  |  |
| N[C@@H](Cc1ccc(N(CCCl)CCCl)cc1)C(=O)O [Melphalan] |  |  | 5.3 |  |
| CN(Cc1cnc2nc(N)nc(N)c2n1)c1ccc(C(=O)N[C@@H](CCC(=O)O)C(=O)O)cc1 [Methotrexate, methotrexate] | 0.9 | 0.9 | 0.8 |  |
| O=C1c2c(O)ccc(O)c2C(=O)c2c(NCCNCCO)ccc(NCCNCCO)c21 [Mitox, mitoxantrone] | 1.2 | 1.2 |  |  |
| CNNCc1ccc(C(=O)NC(C)C)cc1 [Procarbazine] |  |  | 1.3 |  |
| CNC(=O)c1cc(Oc2ccc(NC(=O)Nc3ccc(Cl)c(C(F)(F)F)c3)cc2)ccn1 [Sorafenib] |  |  | 3.8 |  |
| CCN(CC)CCNC(=O)c1c(C)[nH]c(/C=C2\C(=O)Nc3ccc(F)cc32)c1C [Sunifinib, Sunitinib] |  |  | 7.9 |  |
| C#Cc1cccc(Nc2ncnc3cc(OCCOC)c(OCCOC)cc23)c1 [Tarceva] |  |  | 0.7 |  |
| Cn1nnc2c(C(N)=O)ncn2c1=O [Temozolomide] |  |  | 1.5 |  |
| CC(C)C[C@H](NC(=O)[C@H](Cc1ccccc1)NC(=O)c1cnccn1)B(O)O [Velcade] |  |  | 3.8 |  |
| Nc1ncn([C@@H]2O[C@H](CO)[C@@H](O)[C@H]2O)c(=O)n1 [Vidaza] |  |  | 4.3 |  |
| CCCCCOC(=O)Nc1nc(=O)n([C@@H]2O[C@H](C)[C@@H](O)[C@H]2O)cc1F [Xeloda, capcitabine] | 0.7 | 0.7 |  | 5fu and Xeloda < 1 [1, 4]: 8/13 (62%); Xeloda = 5fu +/− 0.57 and both > 1 [1, 4]: 0/13 (0%); Xeloda > 5fu by more than 0.57 and Xeloda > 1 [1, 4]: 2/13 (15%); Mean Difference (95% CI) of KU vs 5FU ([1]; patient pairwise comparison, drug minus 5FU): 0.26 (−0.26 to 0.77) KU |
| Bleomycin |  |  |  | Max Resp. (KU) [2]: 1.1 KU |

Reference: patent US20150160193A1, “TUMOR CELL ISOLATION/PURIFICATION PROCESS AND METHODS FOR USE THEREOF” (DIATECH ONCOLOGY, priority 2012, published 2015)
